Marks after values point to notes of the source that are not given here.
Key:
[1] = Iron concentration in plasma of young pigs after FeSO4 or FeSO4/AKG infusion to the duodenum or pelvic intestine; assay type: in vivo
Procedure: (§1) Investigations were performed on 3 piglets of the Swedish race Landrace weighting 30-35 kg. Animals originated from the university herd (Swedish Agricultural University, Dept. of Agricultural Biosystems and Technology, Lund). Young pigs were fed 2 times a day at the same time (9:00-10:00 a.m. and 3:00-4:00 p.m.) with a standard fodder (Vaxfor, Lantmanen, Sweden) with a daily dose 50 g/kg body weight. They were watered ad libitum. Animals were held separately in boxes with automatically regulated 12 hour's periods of day and night.
(§2) Sterile catheters and T-fistulas used in the experience were made of silicone tubes with maintained medical standards (Dow Cornning). Piglets were starved for 9-12 hours before the operation. Before the operation animals received a sedative drug—azoperone (Stresnil, 2 mg/kg body weight). Then the inhalation induction of general anaesthesia was performed (Fluothan 0.5-1.5 vol %). […] With the catheters inserted to the portal vein and the common carotid-artery the blood samples for later analyses were collected.
Two incisions were done: one 10-15 cm close to the right hunger fossa, second 2-3 cm between the brachial joint and the angle of the mandible. Duodenal fistula was placed behind the opening of the pancreatic duct to the duodenum. Pelvic T-fistula (int. diameter 3.18 mm and ext. diameter 4.64 mm—both fistulas) was introduced to the pelvic intestine at the end of the caeco-iliac ligament.
The catheter to the portal vein (int. diameter 0.64 mm and ext. diameter 1.19 mm) was introduced through the liver and fixed with several sutures (0-2 Catgut, Ethicon, England). The catheter placed in portal vein and both intestinal fistulas were brought out the body in the line of incision. After dissection of zygomatic vein the catheter was introduced in the cardiac direction on the depth of 7 cm. The vein was closed with the double ligature (0-3 silicone-, Ethicon, England) and brought outside the body with the surgical needle in the dorsal part of the neck. The abdomen and the neck wounds were closed with two layers of sutures: the peritoneum (only in the abdomen wound) and muscles were closed with twisted suture (0-0 Catgut , Ethicon), the skin was closed with the interrupted sutures (Suturamid 2-0, Ethicon). After operation young pigs were placed in separate boxes. During 5 postoperative days animals were fed twice a day, they received water ad libitum. The operation was performed by the skilled surgeon in accordance with surgical techniques.
Before infusion animals were starved. The daily dose of food was given during evening feeding at 3:00 p.m. All infusions were started at 9:00 a.m. Blood samples were taken 30 minutes before and 15, 30, 60 and 120 minutes after the infusion. 2. Infusions composition.

[2] = AKG concentration in plasma of young pigs after AKG or FeSO4/AKG infusion to the duodenum or pelvic intestine; assay type: in vivo; settings: FeSO4 infused with AKG
Procedure: as §1, §2
Two incisions were done: one 10-15 cm close to the right hunger fossa, second 2-3 cm between the brachial joint and the angle of the mandible. Duodenal fistula was placed behind the opening of the pancreatic duct to the duodenum. […]

O=S(=O)([O-])[O-].[Fe+2] [FeSO4]
iron concentration in plasma ([1]; infusion to pelvic intestine, portal vein, 15 min): 18.00 ± 5.41^a μmol/l | iron concentration in plasma ([1]; infusion to pelvic intestine, portal vein, 30 min): 17.67 ± 6.53^a μmol/l | iron concentration in plasma ([1]; infusion to pelvic intestine, portal vein, 60 min): 16.83 ± 6.81^a μmol/l | iron concentration in plasma ([1]; infusion to pelvic intestine, portal vein, 120 min): 15.33 ± 7.18^a μmol/l | iron concentration in plasma ([1]; infusion to pelvic intestine, portal vein, -30 min (before infusion)): 19.17 ± 8.69^a μmol/l | iron concentration in plasma ([1]; infusion to pelvic intestine, zygomatic vein, 15 min): 18.83 ± 6.81^a μmol/l | iron concentration in plasma ([1]; infusion to pelvic intestine, zygomatic vein, 30 min): 18.83 ± 6.81^a μmol/l | iron concentration in plasma ([1]; infusion to pelvic intestine, zygomatic vein, 60 min): 18.00 ± 7.47^a μmol/l | iron concentration in plasma ([1]; infusion to pelvic intestine, zygomatic vein, 120 min): 15.67 ± 6.43^a μmol/l | iron concentration in plasma ([1]; infusion to pelvic intestine, zygomatic vein, -30 min (before infusion)): 19.67 ± 7.97^a μmol/l | iron concentration in plasma ([1]; infusion to the duodenum, portal vein, 15 min): 28.5 ± 4.09^b μmol/l | iron concentration in plasma ([1]; infusion to the duodenum, portal vein, 30 min): 37.67 ± 5.3^cb μmol/l | iron concentration in plasma ([1]; infusion to the duodenum, portal vein, 60 min): 40.17 ± 4.62^c μmol/l | iron concentration in plasma ([1]; infusion to the duodenum, portal vein, 120 min): 37.17 ± 4.37^c μmol/l | iron concentration in plasma ([1]; infusion to the duodenum, portal vein, -30 min (before infusion)): 16.33 ± 1.04^a μmol/l | iron concentration in plasma ([1]; infusion to the duodenum, zygomatic vein, 15 min): 29.17 ± 5.51^b μmol/l | iron concentration in plasma ([1]; infusion to the duodenum, zygomatic vein, 30 min): 39.50 ± 4.09^c μmol/l | iron concentration in plasma ([1]; infusion to the duodenum, zygomatic vein, 60 min): 43.0 ± 4.82^c μmol/l | iron concentration in plasma ([1]; infusion to the duodenum, zygomatic vein, 120 min): 39.5 ± 3.5^c μmol/l | iron concentration in plasma ([1]; infusion to the duodenum, zygomatic vein, -30 min (before infusion)): 18.2 ± 1.53^a μmol/l | effect on absorption of AKG from the intestine into the blood [2]: increases the absorption of AKG from the intestine into the blood
